Data as given in the supplement of paper PMC10307832.

How the values were obtained:
Assay in all cases: relative viability (nuclei count vs DMSO), 5 days (fraction); higher = more cells survive
[1] = compound: O=C(O)c1ccc2c(c1)nc(Nc1cccc(Cl)c1)c1ccncc12 [Silmitasertib] + Cc1nc(NC(=O)N2CCC[C@H]2C(N)=O)sc1-c1ccnc(C(C)(C)C(F)(F)F)c1 [Alpelisib] (partner 2 µM)
In short: (§1)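 Lung cancer cell lines were seeded in 1536-well plates and dosed by pin tool the next day, with either a single drug or a fixed anchor-drug dose combined with five library-drug doses (not always all listed) spaced in √10 steps. Five days later, one step fixed the cells and stained their nuclei (final 0.05% Triton X-100, 1% formaldehyde, 1 ug/ml Hoechst), and nuclei were counted on 4× images. Relative viability is the nuclei count in treated wells divided by the count in vehicle wells, and each value is the median of duplicate plates.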

[2] = compound: O=C(O)c1ccc2c(c1)nc(Nc1cccc(Cl)c1)c1ccncc12 [Silmitasertib] + NC(=O)Nc1cc(-c2cccc(F)c2)sc1C(=O)N[C@H]1CCCNC1 [AZD7762] (partner 0.2 µM)
In short: as §1

[3] = compound: O=C(O)c1ccc2c(c1)nc(Nc1cccc(Cl)c1)c1ccncc12 [Silmitasertib] + Cc1nc(Nc2ncc(C(=O)Nc3c(C)cccc3Cl)s2)cc(N2CCN(CCO)CC2)n1 [Dasatinib] (partner 0.075 µM)
In short: as §1

[4] = compound: O=C(O)c1ccc2c(c1)nc(Nc1cccc(Cl)c1)c1ccncc12 [Silmitasertib] + N=C(N)NC(=N)NCCc1ccccc1 [Phenformin] (partner 250 µM)
In short: as §1

[5] = compound: O=C(O)c1ccc2c(c1)nc(Nc1cccc(Cl)c1)c1ccncc12 [Silmitasertib] + CS(=O)(=O)CCNCc1ccc(-c2ccc3ncnc(Nc4ccc(OCc5cccc(F)c5)c(Cl)c4)c3c2)o1 [Lapatinib] (partner 2 µM)
In short: as §1

| Cell Line | relative viability ([1]; first compound 0.04 µM) | relative viability ([1]; first compound 0.4 µM) | relative viability ([1]; first compound 1.265 µM) | relative viability ([1]; first compound 4 µM) | relative viability ([2]; first compound 0.04 µM) | relative viability ([2]; first compound 0.4 µM) | relative viability ([2]; first compound 1.265 µM) | relative viability ([2]; first compound 4 µM) | relative viability ([3]; first compound 0.04 µM) | relative viability ([3]; first compound 0.4 µM) | relative viability ([3]; first compound 1.265 µM) | relative viability ([3]; first compound 4 µM) | relative viability ([4]; first compound 0.04 µM) | relative viability ([4]; first compound 0.4 µM) | relative viability ([4]; first compound 1.265 µM) | relative viability ([4]; first compound 4 µM) | relative viability ([5]; first compound 0.04 µM) | relative viability ([5]; first compound 0.4 µM) | relative viability ([5]; first compound 1.265 µM) | relative viability ([5]; first compound 4 µM) |
| --- | --- | --- | --- | --- | --- | --- | --- | --- | --- | --- | --- | --- | --- | --- | --- | --- | --- | --- | --- | --- |
| 201T | 0.908 | 1 | 1.01 | 1.13 | 0.636 | 0.372 | 0.754 | 0.682 | 0.533 | 0.593 | 0.522 | 0.612 | 0.421 | 0.426 | 0.469 | 0.449 | 1.04 | 1.04 | 1.06 | 1.14 |
| A-427 | 1.07 | – | 1.28 | 1.05 | 0.852 | 0.555 | 0.562 | 0.445 | 0.724 | – | 0.858 | 0.335 | 0.365 | – | 0.297 | 0.156 | 1.06 | – | 1.24 | 0.573 |
| ABC-1 | 1.11 | 0.832 | 0.546 | 0.381 | 0.948 | 0.824 | 0.8 | 0.567 | 0.632 | 0.505 | 0.321 | 0.391 | 0.298 | 0.214 | 0.179 | 0.201 | 1.19 | 0.848 | 0.58 | 0.884 |
| BEN | 1.02 | 0.783 | 0.896 | 0.956 | 0.935 | 0.674 | 0.625 | 0.568 | 0.382 | – | 0.295 | 0.233 | 0.275 | – | 0.281 | 0.258 | 0.691 | 0.637 | 0.589 | 0.445 |
| CAL-12T | 1.38 | 1.21 | 0.802 | 0.551 | 0.656 | 0.7 | 0.805 | 0.77 | 0.569 | 0.32 | 0.183 | 0.198 | 0.67 | 0.488 | 0.352 | 0.296 | 0.776 | 0.62 | 0.533 | 0.464 |
| COR-L23 | 0.843 | 0.788 | 0.759 | 0.586 | – | – | – | – | 0.535 | 0.404 | 0.426 | 0.408 | 0.51 | 0.372 | 0.483 | 0.314 | 1.15 | 0.792 | 0.92 | 0.457 |
| COR-L 105 | 1.16 | 1.06 | 0.803 | 0.664 | – | – | – | – | 0.357 | 0.345 | 0.34 | 0.264 | 0.476 | 0.458 | 0.408 | 0.307 | 0.338 | 0.312 | 0.311 | 0.349 |
| ChaGo-K-1 | – | – | – | – | 0.905 | 0.618 | 0.85 | 0.913 | 0.586 | 0.464 | 0.566 | 0.463 | 0.532 | 0.349 | 0.446 | 0.319 | – | – | – | – |
| EKVX | 1.01 | 0.628 | 0.739 | 0.656 | 0.834 | – | 0.682 | 0.642 | 0.6 | 0.394 | 0.478 | 0.373 | 0.22 | 0.167 | 0.185 | 0.203 | 0.236 | 0.192 | 0.157 | 0.144 |
